The record followed here is ChEMBL document CHEMBL1136805, “Nitroaryl phosphoramides as novel prodrugs for E. coli nitroreductase activation in enzyme prodrug therapy” (J Med Chem, 2003).

For series [1], the system named is SK-OV-3. The series is described as follows: Inhibitory activity against SKOV3 (human ovarian carcinoma) cell line without Escherichia coli nitroreductase combination after 18 hours drug exposure. Format: functional, cell-based.
Series [2] in a line: Inhibitory activity against V79 (chinese hamster fibroblast) cell line without Escherichia coli nitroreductase combination after 72 hours drug exposure. Format: functional, cell-based, Cricetulus griseus.
Series [3] has as its system SK-OV-3. The series is described as follows: Inhibitory activity against SKOV3 (human ovarian carcinoma) cell line with Escherichia coli nitroreductase combination after 18 hours drug exposure. Format: functional, cell-based. The note with it: SK-OV-3, 18 h.
Series [4] is described as follows: Ratio of the activity in absence to that of presence of Escherichia coli nitroreductase V79 (chinese hamster fibroblast) cell line. Format: functional.
Series [5] can be described thus: Ratio of the activity in absence to that of presence of Escherichia coli nitroreductase in SKOV3 (human ovarian carcinoma) cell line. Format: functional.
Series [6] can be described thus: Inhibitory activity against V79 (chinese hamster fibroblast) cell line with Escherichia coli nitroreductase combination after 72 hours drug exposure. Format: functional, cell-based, Cricetulus griseus.
Series [7] is described as follows: Inhibitory activity against V79 (chinese hamster fibroblast) cell line with Escherichia coli nitroreductase combination after 1 hour drug exposure. Format: functional, cell-based, Cricetulus griseus.
Series [8] can be described thus: Inhibitory activity against V79 (chinese hamster fibroblast) cell line without Escherichia coli nitroreductase combination after 1 hour drug exposure. Format: functional, cell-based, Cricetulus griseus.
A short description of series [9]: Kcat was determined. Format: ADME.
A short description of series [10]: Ratio of the activity in absence to that of presence of the Escherichia coli nitroreductase in SKOV3 (human ovarian carcinoma) cell line infected at lower infection rate of 10 pfu/cell. Format: functional.
Series [11] can be described thus: Ratio of Kcat to that of Km was determined. Format: ADME.
The subject of series [12] is SK-OV-3. The series is described as follows: Inhibitory activity against SKOV3 (human ovarian carcinoma) cell line infected at lower infection rate of 10 pfu/cell with Escherichia coli nitroreductase combination after 18 hours drug exposure. Format: functional, cell-based. The note with it: SK-OV-3, 18 h.

Usually IC50 stands for the midpoint of a concentration-inhibition curve. On to `O=[N+]([O-])c1ccc2c(c1)NP(=O)(N(CCCl)CCCl)OC2` (stereo not drawn), for which the IC50 is 550 µM in the series on SK-OV-3 [1] (Homo sapiens, SK-OV-3, 18 h); more than 100 µM in [2]; 55 µM in the series on SK-OV-3 [3]; 3 µM in series [6]. In addition, the Ratio is on record as more than 33 in series [4] and 10 in series [5].
For `O=[N+]([O-])c1cccc([C@H]2CCNP(=O)(N(CCCl)CCCl)O2)c1` (stereo partly drawn), the IC50 was 680 µM in the series with SK-OV-3 [1] (Homo sapiens, SK-OV-3, 18 h); 832 µM in [2]; 4.7 µM with SK-OV-3 [3]; 0.34 µM in series [7]; 0.029 µM in [6]; more than 100 µM in series [8]. The Ratio in series [5] is given as 145.
As to `O=[N+]([O-])c1cccc([C@@H]2CCNP(=O)(N(CCCl)CCCl)O2)c1` (stereo partly drawn), the IC50 in the series with SK-OV-3 [1] (Homo sapiens, SK-OV-3, 18 h) was more than 1000 µM; in [2], 608 µM; in the series with SK-OV-3 [3], 5 µM; in series [7] it was 0.17 µM; in series [6], 0.027 µM; in series [8] it was more than 100 µM. In addition, the Ratio in [5] was more than 200.
As to `NP(=O)(OCc1ccc([N+](=O)[O-])cc1)N(CCCl)CCCl` (stereo not drawn), the IC50 is more than 10000 µM in the series with SK-OV-3 [1] (Homo sapiens, SK-OV-3, 18 h); 67 µM in series [2]; 1.2 µM in the series with SK-OV-3 [3]; 0.01 µM in series [7]; 0.0004 µM in series [6]; more than 100 µM in series [8]. The IC50 in the series with SK-OV-3 [12] came out at 6.2 µM. For the same molecule, the k cat in series [9] amounted to 14 s⁻¹. Further, the Ratio in [10] is more than 161; in series [5] it was more than 833. Moreover, the “k cat/Km” value in series [11] is 71949 M⁻¹ s⁻¹.
`NC(=O)c1cc(N2CC2)c([N+](=O)[O-])cc1[N+](=O)[O-]` [TRETAZICAR]: the IC50 in the series with SK-OV-3 [1] (Homo sapiens, SK-OV-3, 18 h) is more than 1000 µM; in the series on SK-OV-3 [1] (sk-ov-3), 625 µM; in series [2] it was 254 µM; in the series with SK-OV-3 [3], 4.7 µM; in [7], 0.31 µM; in series [6], 0.036 µM. Further, the IC50 in [8] is more than 100 µM; with SK-OV-3 [12], 52 µM. The molecule also gave a k cat in series [9] of 6.6 s⁻¹. Also, the Ratio is given as 12 in series [10] and more than 213 in series [5]. Further, the 1/2Kcat/Km in [11] is 3746 M⁻¹ s⁻¹.
